Legend:
Format in all cases: in vivo
kochia (Kochia scoparia) = experiment: Test A greenhouse herbicide test, pre- and postemergence
Outline: (§1)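 Seeds sown in loam–sand blend got a preemergence directed soil spray of compound in non-phytotoxic solvent with surfactant. Postemergence treatment was given at 2–10 cm, one- to two-leaf stage. After ~10 d in greenhouse, injury was rated visually vs untreated controls, 0 (no effect) to 100 (complete control).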

[1] = test system: wheat (Triticum aestivum); experiment: as above; conditions: Postemergence; for Wheat plant response rating: 0 to 100 scale, 0 is no effect, 100 is complete control
Outline: as §1

[2] = test system: ryegrass, Italian (Italian ryegrass, Lolium multiflorum); experiment: as above
Outline: as §1

[3] = test system: chickweed (common chickweed, Stellaria media); experiment: Test C greenhouse herbicide test, postemergence
Outline: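 Seedlings are raised in pots of peat moss–vermiculite medium with starter nutrients, then receive postemergence test chemical at the 1- to 4-leaf stage. They are kept in the greenhouse 13 to 15 d and scored visually versus controls, 0 meaning no effect and 100 complete control.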

rice (Oryza sativa) = experiment: Test B flooded paddy test; conditions: 250 g ai/ha, Flood; visual rating on scale of 0 to 100 where 0 is no effect and 100 is complete control; 13 to 15 d after treatment
Outline: (§2)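 Plants at the 2-leaf stage were flooded to 3 cm above soil, and test compounds were applied directly into the paddy water, which was held at that depth throughout. After 13 to 15 d in a greenhouse, injury was rated visually against untreated controls on a 0–100 scale (0 no effect, 100 complete control).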

[4] = test system: barnyardgrass (Echinochloa crus-galli); experiment: Test B flooded paddy test; conditions: 250 g ai/ha, Flood; visual rating on scale of 0 to 100 where 0 is no effect and 100 is complete control; 13 to 15 d after treatment
Outline: as §2

[5] = test system: sedge, umbrella (small-flower umbrella sedge, Cyperus difformis); experiment: Test B flooded paddy test; conditions: 250 g ai/ha, Flood; visual rating on scale of 0 to 100 where 0 is no effect and 100 is complete control; 13 to 15 d after treatment
Outline: as §2

[6] = test system: ducksalad (Heteranthera limosa); experiment: Test B flooded paddy test; conditions: 250 g ai/ha, Flood; visual rating on scale of 0 to 100 where 0 is no effect and 100 is complete control; 13 to 15 d after treatment
Outline: as §2

[7] = Postemergence, 125 g ai/ha, 0 to 100 scale where 0 is no effect and 100 is complete control
[8] = Postemergence, 500 g ai/ha, 0 to 100 scale, 0 is no effect, 100 is complete control
[9] = Preemergence, 125 g ai/ha, 0 to 100 scale where 0 is no effect and 100 is complete control
[10] = Preemergence, 500 g ai/ha, 0 to 100 scale where 0 is no effect and 100 is complete control
[11] = 125 g ai/ha, 0 to 100 scale where 0 is no effect and 100 is complete control
[12] = Postemergence, 31 g ai/ha, 0 to 100 scale (0 no effect, 100 complete control)
[13] = Postemergence, 125 g ai/ha, scale 0 to 100, 0 is no effect, 100 is complete control
[14] = Postemergence, 250 g ai/ha, scale 0 to 100, 0 no effect, 100 complete control, 13 to 15 d
[15] = postemergence, 62 g ai/ha, scale 0 to 100, 0 no effect, 100 complete control
[16] = Postemergence, 500 g ai/ha, visual rating after approx. 10 d, 0 to 100 scale (0 no effect, 100 complete control)
[17] = 500 g ai/ha, visual rating after approx. 10 d, 0 to 100 scale (0 no effect, 100 complete control)
[18] = Postemergence, 31 g ai/ha, scale 0 to 100 (0 no effect, 100 complete control)

| Compound | Plant response rating, Kochia (kochia (Kochia scoparia); [7]) | Kochia plant response rating (kochia (Kochia scoparia); [9]) | Plant response rating, Kochia (kochia (Kochia scoparia); [10]) | Plant response rating, Wheat [1, 11] | Plant response rating, Ryegrass, Italian [2, 7] | Ryegrass, Italian plant response rating [2, 9] | Plant response rating, Ryegrass, Italian [2, 10] | Chickweed plant response rating [3, 12] | Plant response rating, Chickweed [3, 13] | Plant response rating, Chickweed [3, 14] | Chickweed plant response rating [3, 15] | Plant response rating, Rice (rice (Oryza sativa)) | Plant response rating, Barnyardgrass [4] | Plant response rating, Sedge, Umbrella [5] | Plant response rating, Ducksalad [6] | Plant response rating, Kochia (kochia (Kochia scoparia); [16]) | Plant response rating, Wheat [1, 17] | Plant response rating, Ryegrass, Italian [2, 16] | Plant response rating, Chickweed [3, 18] | further results |
| --- | --- | --- | --- | --- | --- | --- | --- | --- | --- | --- | --- | --- | --- | --- | --- | --- | --- | --- | --- | --- |
| Cc1cc(C)c2sc(C)c(-c3c(OC(=O)OCCCl)c(C)nn(C)c3=O)c2c1 [Compound 85] | 30 | 0 | 30 | 0 | 90 | 100 | 100 | 90 | 95 | 100 | 95 | 50 | 50 | 80 | 50 | – | – | – | – | Kochia plant response rating (kochia (Kochia scoparia); [8]): 70; Wheat plant response rating ([1]; 500 g ai/ha): 0; Ryegrass, Italian plant response rating [2, 8]: 90 |
| C#CCOC(=O)Oc1c(C)nn(C)c(=O)c1-c1c(C)sc2ccc(C)cc12 [Compound 87] | 90 | 80 | 90 | 0 | 80 | 90 | 100 | 90 | 95 | 98 | 90 | 0 | 0 | 0 | 0 | – | – | – | – | Kochia plant response rating (kochia (Kochia scoparia); [8]): 90; Wheat plant response rating ([1]; 500 g ai/ha): 0; Ryegrass, Italian plant response rating [2, 8]: 80 |
| CC(=O)Oc1c(C#N)nn(C)c(=O)c1-c1c(C)ccc2ccccc12 [Compound 98] | 30 | 20 | 40 | 30 | 90 | 20 | 90 | 95 | 100 | 100 | 100 | 30 | 45 | 60 | 75 | 60 | 30 | 100 | – | – |
| COc1nn(C)c(=O)c(-c2c(C)sc3ccc(Cl)cc23)c1O [Compound 100] | 70 | 30 | 70 | 0 | 90 | 90 | 100 | 90 | 95 | 95 | 90 | 0 | 0 | 0 | 0 | 100 | 20 | 100 | – | – |
| CCC(=O)Oc1c(Cl)nn(C)c(=O)c1-c1c(C)sc2ccc(Cl)cc12 [Compound 111] | 40 | 60 | 100 | 20 | 90 | 90 | 100 | – | 100 | 98 | 98 | 0 | 0 | 75 | 75 | 90 | 30 | 100 | 95 | – |
| Cc1sc2ccc(Cl)cc2c1-c1c(OS(C)(=O)=O)c(Cl)nn(C)c1=O [Compound 114] | 30 | 30 | 100 | 20 | 90 | 80 | 90 | – | 98 | 98 | 95 | 0 | 0 | 70 | 50 | 60 | 40 | 90 | 90 | – |
| Cc1nn(C)c(=O)c(-c2cc(F)cc3ccccc23)c1OS(C)(=O)=O [Compound 115] | 70 | 30 | 90 | 20 | 100 | 100 | 100 | – | 90 | 90 | 75 | 0 | 0 | 0 | 0 | 90 | 30 | 100 | 80 | – |
| Cc1nn(C)c(=O)c(-c2ccc(F)c3ccccc23)c1OC(=O)CC(F)(F)F [Compound 123] | 70 | 50 | 100 | 0 | 90 | 90 | 100 | – | 90 | 98 | 90 | 15 | 20 | 70 | 30 | 70 | 20 | 100 | 90 | – |
| Cc1ccc2ccccc2c1-c1c(O)c(Cl)nn(C)c1=O [Compound 125] | 100 | 60 | 90 | 50 | 100 | 100 | 100 | – | 95 | 95 | 95 | 0 | 0 | 75 | 80 | 100 | 80 | 100 | 95 | – |
| Cc1nn(C)c(=O)c(-c2cccc3ccc(C#N)cc23)c1O [Compound 127] | 70 | 0 | 90 | 0 | 80 | 60 | 90 | – | – | 95 | – | 0 | 0 | 0 | 0 | 80 | 20 | 90 | 50 | Chickweed plant response rating ([3]; Postemergence, 62 g ai/ha, 0 to 100 scale (0 no effect, 100 complete control)): 90; Chickweed plant response rating ([3]; postemergence, 125 g ai/ha, scale 0 to 100, 0 no effect, 100 complete control): 90 |

Source: patent US10597388B2, “Pyridazinone herbicides” (FMC CORPORATION, priority 2014, dated 2020)
